In patent US20240279278A1, “NMU RECEPTOR 2 AGONISTS” (Boehringer Ingelheim International GmbH, priority 2023, published 2024):
Residues, ends and D or L forms follow the SMILES beside them.

Key:
Assay type in all cases: cell-based
human NMUR1 receptor = target: T1, human NMUR1 receptor (Homo sapiens, UniProt Q9HB89); assay: IP1 Gq HTRF assay, activation of human NMUR1 in buffer; settings: CHO-K1 cells expressing human NMUR1, stimulation buffer with 0.1% BSA; read-out: EC50 (hNMUR1) buffer
T1 construct: expressed in transfected cells; host or cells: CHO-K1
T1 sequence (Q9HB89 1-426): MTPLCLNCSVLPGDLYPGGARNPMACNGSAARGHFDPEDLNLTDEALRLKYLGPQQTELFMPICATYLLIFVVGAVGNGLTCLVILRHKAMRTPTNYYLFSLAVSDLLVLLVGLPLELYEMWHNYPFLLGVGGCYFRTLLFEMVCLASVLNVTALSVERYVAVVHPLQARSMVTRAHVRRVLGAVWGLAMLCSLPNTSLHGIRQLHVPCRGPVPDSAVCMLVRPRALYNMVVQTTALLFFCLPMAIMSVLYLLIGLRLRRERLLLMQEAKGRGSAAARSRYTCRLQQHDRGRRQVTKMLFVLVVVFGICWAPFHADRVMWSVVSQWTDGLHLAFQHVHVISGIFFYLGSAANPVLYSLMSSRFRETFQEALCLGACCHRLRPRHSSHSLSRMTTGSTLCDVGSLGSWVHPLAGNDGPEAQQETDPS
Text: (§1) Example 3: IP1 Gq HTRF Assay Activation of Human NMUR2 or Human NMUR1 in Buffer Application of the Homogenous Time Resolved Fluorescence (HTRF) technology optimized for Gq coupled receptors has been described in detail in the Cisbio IP-One Gq kit manual. In brief, a FRET signal (FRET: fluorescence resonance energy transfer) is generated between the donor label of an IP-One antibody (anti-IP1-Tb) and the acceptor label of a tagged IP-One (IP1-d2). Agonism of a Gq coupled receptor increases intracellular IP-One, which competes with labeled IP-One and leads to a reduction of the FRET signal. Frozen stocks of CHO-K1 cells stably expressing the human NMUR1 or NMUR2 receptor were thawed and 5000 cells were seeded in culture medium (HAM'S F12, 10% FCS) into each well of a 384-well assay plate. After seeding, cells were incubated for 24 h in a humidified incubator at 37° C. and 5% CO2. Next, cells were washed once with 50 μL of wash buffer (20 mM Hepes, 1×HBSS, pH 7.4), followed by addition of either 10 μL of stimulation buffer (20 mM Hepes, 1×HBSS, 50 mM LiCl, 0.1% BSA, pH 7.4). Peptide agonists to be tested were dissolved in 100% DMSO and pre-diluted in stimulation buffer at a suitable concentration range for an 8 pt dose-response curve. 5 μL of peptide pre-dilution were then added to each well, followed by another 5 μL of stimulation buffer to give a final concentration of 1% DMSO. Samples were subsequently incubated for 1 hour in a humidified incubator at 37° C. After addition of 5 μL each of IP1-d2 and anti-IP1-Tb, samples were incubated for another 1 hour at room temperature and FRET signals (ratio 665 nm/620 nm) were measured. EC50 values were calculated by nonlinear regression using a 4-parameter sigmoidal curve fit.

human NMUR2 receptor [1] = target: T2, human NMUR2 receptor (Homo sapiens, UniProt Q9GZQ4); assay: IP1 Gq HTRF assay, activation of human NMUR2 in buffer; design: expressed in transfected cells; host or cells: CHO-K1; settings: CHO-K1 cells expressing human NMUR2, stimulation buffer with 0.1% BSA; read-out: EC50 (hNMUR2) buffer
Text: as §1

human NMUR2 receptor [2] = target: T2, human NMUR2 receptor; assay: IP1 Gq HTRF assay, activation of human NMUR2 in human plasma; design: expressed in transfected cells; host or cells: CHO-K1; settings: CHO-K1 cells expressing human NMUR2, 100% human plasma; read-out: EC50 (hNMUR2) human plasma
Text: Example 4: IP1 Gq HTRF Assay Activation of Human NMUR2 in Human Plasma Application of the Homogenous Time Resolved Fluorescence (HTRF) technology optimized for Gq coupled receptors has been described in detail in the Cisbio IP-One Gq kit manual. In brief, a FRET signal is generated between the donor label of an IP-One antibody (anti-IP1-Tb) and the acceptor label of a tagged IP-One (IP1-d2). Agonism of a Gq coupled receptor increases intracellular IP-One, which competes with labeled IP-One and leads to a reduction of the FRET signal. Frozen stocks of CHO-K1 cells stably expressing the human NMUR1 receptor or human NMUR2 receptor were thawed and 5000 cells were seeded in culture medium (HAM'S F12, 10% FCS) into each well of a 384-well assay plate. After seeding, cells were incubated for 24 h in a humidified incubator at 37° C. and 5% CO2. Next, cells were washed once with […] of wash buffer (20 mM Hepes, 1×HBSS, pH 7.4), followed by addition of […] (100% human plasma, 50 mM LiCl). Peptide agonists to be tested were dissolved in 100% DMSO and pre-diluted in plasma at a suitable concentration range for an 8 pt dose-response curve. 5 μL of peptide pre-dilution were then added to each well, followed by another 5 μL of plasma to give a final concentration of 1% DMSO. Samples were subsequently incubated for 1 hour in a humidified incubator at 37° C. The plasma solution was replaced by 20 μL of stimulation buffer. After addition of 5 μL each of IP1-d2 and anti-IP1-Tb, samples were incubated for another 1 hour at room temperature and FRET signals (ratio 665 nm/620 nm) were measured. EC50 values were calculated by nonlinear regression using a 4-parameter sigmoidal curve fit.

T2 sequence (Q9GZQ4 whole entry): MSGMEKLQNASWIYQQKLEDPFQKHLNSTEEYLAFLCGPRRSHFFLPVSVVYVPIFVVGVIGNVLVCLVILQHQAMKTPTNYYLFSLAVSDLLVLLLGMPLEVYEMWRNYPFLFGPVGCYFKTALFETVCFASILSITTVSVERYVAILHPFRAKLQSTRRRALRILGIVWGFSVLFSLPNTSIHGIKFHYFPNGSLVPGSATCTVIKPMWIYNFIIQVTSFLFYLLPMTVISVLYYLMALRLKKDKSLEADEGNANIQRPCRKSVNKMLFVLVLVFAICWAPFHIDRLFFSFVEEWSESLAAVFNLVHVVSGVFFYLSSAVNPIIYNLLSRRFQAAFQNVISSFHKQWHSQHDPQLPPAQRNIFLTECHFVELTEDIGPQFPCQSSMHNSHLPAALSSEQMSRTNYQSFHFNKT

SMILES	EC50 (human NMUR1 receptor) [µM]	EC50 (human NMUR2 receptor [1]) [µM]	EC50 (human NMUR2 receptor [2]) [µM]
CCCC[C@H](NC(=O)[C@H](CC(C)C)N(C)C(=O)[C@H](Cc1ccccc1)NC(=O)[C@H](Cc1ccc(O)cc1)NC(=O)CN1CCN(CCNC(=O)CN(C)C(=O)CN(C)C(=O)CN(C)C(=O)CN(C)C(=O)CN(C)C(=O)CN(C)C(=O)CN(C)C(=O)CN(C)C(=O)CN(C)C(=O)CN(C)C(=O)CN(C)C(=O)CN(C)C(=O)CN(C)C(=O)CN(C)C(=O)CN(C)C(=O)CC[C@H](NC(=O)CC[C@H](NC(=O)CC[C@H](NC(=O)CC[C@H](NC(=O)CCCCCCCCCCCCCCCCCCC(=O)O)C(=O)O)C(=O)O)C(=O)O)C(=O)O)CC1)C(=O)N[C@@H](CCCN)C(=O)N(C)[C@@H](C)C(=O)N[C@@H](CCCNC(=N)N)C(=O)NCC(N)=O [Compound 14, C20DA-gGlu4-Sar15-AEPipAc-Tyr-Phe-NMeLeu-Nle-Orn-NMeAla-Arg-Gly-NH2] (HELM PEPTIDE1{[O=C(O)CCCCCCCCCCCCCCCCCCC(=O)[*:2]].[gGlu].[gGlu].[gGlu].[gGlu].[Sar].[Sar].[Sar].[Sar].[Sar].[Sar].[Sar].[Sar].[Sar].[Sar].[Sar].[Sar].[Sar].[Sar].[Sar].[O=C(CN1CCN(CCN[*:1])CC1)[*:2]].Y.F.[meL].[Nle].[Orn].[meA].R.G.[am]}$$$$V2.0)	1.4	0.0029	0.0103
CCCC[C@H](NC(=O)[C@H](CC(C)C)N(C)C(=O)[C@H](Cc1ccccc1)NC(=O)[C@H](Cc1ccc(O)cc1)NC(=O)CN1CCN(CCNC(=O)CN(C)C(=O)CN(C)C(=O)CN(C)C(=O)CN(C)C(=O)CN(C)C(=O)CN(C)C(=O)CN(C)C(=O)CN(C)C(=O)CN(C)C(=O)CN(C)C(=O)CN(C)C(=O)CN(C)C(=O)CN(C)C(=O)CN(C)C(=O)CN(C)C(=O)CC[C@H](NC(=O)CC[C@H](NC(=O)CC[C@H](NC(=O)CC[C@H](NC(=O)CCCCCCCCCCCCCCCCCCC(=O)O)C(=O)O)C(=O)O)C(=O)O)C(=O)O)CC1)C(=O)N[C@@H](CCN)C(=O)N(C)[C@@H](C)C(=O)N[C@@H](CCCNC(=N)N)C(=O)NCC(N)=O [Compound 16, C20DA-gGlu4-Sar15-AEPipAc-Tyr-Phe-NMeLeu-Nle-Dbu-NMeAla-Arg-Gly-NH2] (HELM PEPTIDE1{[O=C(O)CCCCCCCCCCCCCCCCCCC(=O)[*:2]].[gGlu].[gGlu].[gGlu].[gGlu].[Sar].[Sar].[Sar].[Sar].[Sar].[Sar].[Sar].[Sar].[Sar].[Sar].[Sar].[Sar].[Sar].[Sar].[Sar].[O=C(CN1CCN(CCN[*:1])CC1)[*:2]].Y.F.[meL].[Nle].[Dab].[meA].R.G.[am]}$$$$V2.0)	> 1	0.0033	0.011
CCCC[C@H](NC(=O)[C@H](CC(C)C)N(C)C(=O)[C@H](Cc1ccccc1)NC(=O)[C@H](Cc1ccc(O)cc1)NC(=O)CN1CCN(CCNC(=O)CN(C)C(=O)CN(C)C(=O)CN(C)C(=O)CN(C)C(=O)CN(C)C(=O)CN(C)C(=O)CN(C)C(=O)CN(C)C(=O)CN(C)C(=O)CN(C)C(=O)CN(C)C(=O)CN(C)C(=O)CN(C)C(=O)CN(C)C(=O)CN(C)C(=O)CC[C@H](NC(=O)CC[C@H](NC(=O)CC[C@H](NC(=O)CC[C@H](NC(=O)CCCCCCCCCCCCCCCCCCC(=O)O)C(=O)O)C(=O)O)C(=O)O)C(=O)O)CC1)C(=O)N[C@@H](CCCCN)C(=O)N(C)[C@@H](C)C(=O)N[C@@H](CCCNC(=N)N)C(=O)NCC(N)=O [Compound 18, C20DA-gGlu4-Sar15-AEPipAc-Tyr-Phe-NMeLeu-Nle-Lys-NMeAla-Arg-Gly-NH2] (HELM PEPTIDE1{[O=C(O)CCCCCCCCCCCCCCCCCCC(=O)[*:2]].[gGlu].[gGlu].[gGlu].[gGlu].[Sar].[Sar].[Sar].[Sar].[Sar].[Sar].[Sar].[Sar].[Sar].[Sar].[Sar].[Sar].[Sar].[Sar].[Sar].[O=C(CN1CCN(CCN[*:1])CC1)[*:2]].Y.F.[meL].[Nle].K.[meA].R.G.[am]}$$$$V2.0)	> 1	0.007	0.0347
CCCC[C@H](NC(=O)[C@H](CC(C)C)N(C)C(=O)[C@H](Cc1ccccc1)NC(=O)[C@H](Cc1ccc(O)cc1)NC(=O)CN1CCN(CCNC(=O)CN(C)C(=O)CN(C)C(=O)CN(C)C(=O)CN(C)C(=O)CN(C)C(=O)CN(C)C(=O)CN(C)C(=O)CN(C)C(=O)CN(C)C(=O)CN(C)C(=O)CN(C)C(=O)CN(C)C(=O)CC[C@H](NC(=O)CC[C@H](NC(=O)CC[C@H](NC(=O)CC[C@H](NC(=O)CCCCCCCCCCCCCCCCCCC(=O)O)C(=O)O)C(=O)O)C(=O)O)C(=O)O)CC1)C(=O)N[C@@H](CCCCN)C(=O)N(C)[C@@H](C)C(=O)N[C@@H](CCCNC(=N)N)C(=O)NCC(N)=O [Compound 19, C20DA-gGlu4-Sar12-AEPipAc-Tyr-Phe-NMeLeu-Nle-Lys-NMeAla-Arg-Gly-NH2]	1.4	0.0057	0.0366
CCCC[C@H](NC(=O)[C@H](CC(C)C)N(C)C(=O)[C@H](Cc1ccccc1)NC(=O)[C@H](Cc1ccc(O)cc1)NC(=O)CN1CCN(CCNC(=O)CN(C)C(=O)CN(C)C(=O)CN(C)C(=O)CN(C)C(=O)CN(C)C(=O)CN(C)C(=O)CN(C)C(=O)CN(C)C(=O)CN(C)C(=O)CN(C)C(=O)CN(C)C(=O)CN(C)C(=O)CN(C)C(=O)CN(C)C(=O)CN(C)C(=O)CC[C@H](NC(=O)CC[C@H](NC(=O)CC[C@H](NC(=O)CCCCCCCCCCCCCCCCCCC(=O)O)C(=O)O)C(=O)O)C(=O)O)CC1)C(=O)N[C@@H](CCCN)C(=O)NCC(=O)N[C@@H](CCCNC(=N)N)C(=O)NCC(N)=O [Compound 29, C20DA-gGlu3-Sar15-AEPipAc-Tyr-Phe-NMeLeu-Nle-Orn-Gly-Arg-Gly-NH2] (HELM PEPTIDE1{[O=C(O)CCCCCCCCCCCCCCCCCCC(=O)[*:2]].[gGlu].[gGlu].[gGlu].[Sar].[Sar].[Sar].[Sar].[Sar].[Sar].[Sar].[Sar].[Sar].[Sar].[Sar].[Sar].[Sar].[Sar].[Sar].[O=C(CN1CCN(CCN[*:1])CC1)[*:2]].Y.F.[meL].[Nle].[Orn].G.R.G.[am]}$$$$V2.0)	> 1	0.052	0.535
